Reference: PMC7490411 (Signal Transduction and Targeted Therapy, 2020)

Key:
[1] = rat 14-day dose escalation subacute toxicity study; type: in vivo; conditions: rats, up to 800 mg/kg/day, continuous 14 days
Description: The subacute toxicity study of CHMFL-BTK-85 was conducted on SD rats, 200g in weight and five weeks in age. All mice were purchased from Gempharmatech Co., Ltd (Nanjing, China). All animals were housed in a specific pathogen-free facility and used according to the animal care regulations of Hefei Institutes of Physical Science Chinese Academy of Sciences. CHMFL-BTK-85 was delivered daily in a HKI solution (0.5% Methocellulose/0.4% Tween 80 in ddH2O) by orally gavage. Body weight was measured daily after CHMFL-BTK-85 treatment.

[2] = test system: ABL1(M351T)-phosphorylated; assay: KINOMEscan; type: binding; conditions: 1000 nM
[3] = test system: ACVR2B; assay: KINOMEscan; type: binding; conditions: 1000 nM
[4] = test system: ASK1; assay: KINOMEscan; type: binding; conditions: 1000 nM
[5] = test system: ASK2; assay: KINOMEscan; type: binding; conditions: 1000 nM
[6] = test system: AURKC; assay: KINOMEscan; type: binding; conditions: 1000 nM
[7] = test system: CAMKK1; assay: KINOMEscan; type: binding; conditions: 1000 nM
[8] = test system: CDK11; assay: KINOMEscan; type: binding; conditions: 1000 nM
[9] = test system: CDK7; assay: KINOMEscan; type: binding; conditions: 1000 nM
[10] = test system: CLK3; assay: KINOMEscan; type: binding; conditions: 1000 nM
[11] = test system: CLK4; assay: KINOMEscan; type: binding; conditions: 1000 nM
[12] = test system: CSF1R-autoinhibited; assay: KINOMEscan; type: binding; conditions: 1000 nM
[13] = test system: CSK; assay: KINOMEscan; type: binding; conditions: 1000 nM
[14] = test system: CSNK1D; assay: KINOMEscan; type: binding; conditions: 1000 nM
[15] = test system: CSNK1E; assay: KINOMEscan; type: binding; conditions: 1000 nM
[16] = test system: CSNK2A1; assay: KINOMEscan; type: binding; conditions: 1000 nM
[17] = test system: EPHA1; assay: KINOMEscan; type: binding; conditions: 1000 nM
[18] = test system: FES; assay: KINOMEscan; type: binding; conditions: 1000 nM
[19] = test system: FGFR3; assay: KINOMEscan; type: binding; conditions: 1000 nM
[20] = test system: GRK2; assay: KINOMEscan; type: binding; conditions: 1000 nM
[21] = test system: HIPK2; assay: KINOMEscan; type: binding; conditions: 1000 nM
[22] = test system: JAK1(JH1domain-catalytic); assay: KINOMEscan; type: binding; conditions: 1000 nM
[23] = test system: JNK2; assay: KINOMEscan; type: binding; conditions: 1000 nM
[24] = test system: KIT-autoinhibited; assay: KINOMEscan; type: binding; conditions: 1000 nM
[25] = test system: LKB1; assay: KINOMEscan; type: binding; conditions: 1000 nM
[26] = test system: LOK; assay: KINOMEscan; type: binding; conditions: 1000 nM
[27] = test system: MAP3K2; assay: KINOMEscan; type: binding; conditions: 1000 nM
[28] = test system: MYO3A; assay: KINOMEscan; type: binding; conditions: 1000 nM
[29] = test system: NEK2; assay: KINOMEscan; type: binding; conditions: 1000 nM
[30] = test system: NEK6; assay: KINOMEscan; type: binding; conditions: 1000 nM
[31] = test system: OSR1; assay: KINOMEscan; type: binding; conditions: 1000 nM
[32] = test system: PAK2; assay: KINOMEscan; type: binding; conditions: 1000 nM
[33] = test system: PCTK2; assay: KINOMEscan; type: binding; conditions: 1000 nM
[34] = test system: PIK3CA(H1047Y); assay: KINOMEscan; type: binding; conditions: 1000 nM
[35] = test system: PIKFYVE; assay: KINOMEscan; type: binding; conditions: 1000 nM
[36] = test system: PIM1; assay: KINOMEscan; type: binding; conditions: 1000 nM
[37] = test system: PIP5K1C; assay: KINOMEscan; type: binding; conditions: 1000 nM
[38] = test system: PKN2; assay: KINOMEscan; type: binding; conditions: 1000 nM
[39] = test system: PRP4; assay: KINOMEscan; type: binding; conditions: 1000 nM
[40] = test system: ROCK1; assay: KINOMEscan; type: binding; conditions: 1000 nM
[41] = test system: ROCK2; assay: KINOMEscan; type: binding; conditions: 1000 nM
[42] = test system: RPS6KA4(Kin.Dom.2-C-terminal); assay: KINOMEscan; type: binding; conditions: 1000 nM
[43] = test system: RSK3(Kin.Dom.1-N-terminal); assay: KINOMEscan; type: binding; conditions: 1000 nM
[44] = test system: SGK; assay: KINOMEscan; type: binding; conditions: 1000 nM
[45] = test system: SGK3; assay: KINOMEscan; type: binding; conditions: 1000 nM
[46] = test system: TIE2; assay: KINOMEscan; type: binding; conditions: 1000 nM
[47] = test system: TNNI3K; assay: KINOMEscan; type: binding; conditions: 1000 nM
[48] = test system: TYK2(JH1domain-catalytic); assay: KINOMEscan; type: binding; conditions: 1000 nM
[49] = test system: WEE2; assay: KINOMEscan; type: binding; conditions: 1000 nM
[50] = test system: WNK3; assay: KINOMEscan; type: binding; conditions: 1000 nM
[51] = test system: YANK3; assay: KINOMEscan; type: binding; conditions: 1000 nM
[52] = test system: YSK1; assay: KINOMEscan; type: binding; conditions: 1000 nM

In the case of `C=CC(=O)Nc1cc(Nc2cc(-c3cccc(NC(=O)c4cc5c(s4)CCCC5)c3C)cn(C)c2=O)ccc1N1CCN(CC)CC1` [CHMFL-BTK-85], the “tolerability in dose escalation study” value [1] is reported as “well tolerated”, the “Percent Control” value [2] is reported as 100% and the “Percent Control” value [3] is reported as 99%. The “Percent Control” value [4] was 86%, the “Percent Control” value [5] was 100% and the “Percent Control” value [6] was 100%. For the same compound, the “Percent Control” value [7] was 75%, the “Percent Control” value [8] was 82% and the “Percent Control” value [9] was 96%. The “Percent Control” value [10] was 80%, the “Percent Control” value [11] was 96% and the “Percent Control” value [12] was 100%. The “Percent Control” value [13] was 80%, the “Percent Control” value [14] was 82% and the “Percent Control” value [15] was 95%. For the same compound, the “Percent Control” value [16] was 94%, the “Percent Control” value [17] was 90% and the “Percent Control” value [18] was 98%. The “Percent Control” value [19] was 82%, the “Percent Control” value [20] was 100% and the “Percent Control” value [21] was 100%. For the same compound, the “Percent Control” value [22] was 96%, the “Percent Control” value [23] was 100% and the “Percent Control” value [24] was 100%. The “Percent Control” value [25] was 92%, the “Percent Control” value [26] was 100% and the “Percent Control” value [27] was 100%. For the same compound, the “Percent Control” value [28] was 93%, the “Percent Control” value [29] was 99% and the “Percent Control” value [30] was 100%. For the same compound, the “Percent Control” value [31] was 100%, the “Percent Control” value [32] was 100% and the “Percent Control” value [33] was 100%. For the same compound, the “Percent Control” value [34] was 83%, the “Percent Control” value [35] was 78% and the “Percent Control” value [36] was 95%. For the same compound, the “Percent Control” value [37] was 99%, the “Percent Control” value [38] was 81% and the “Percent Control” value [39] was 92%. For the same compound, the “Percent Control” value [40] was 100%, the “Percent Control” value [41] was 100% and the “Percent Control” value [42] was 100%. For the same compound, the “Percent Control” value [43] was 85%, the “Percent Control” value [44] was 100% and the “Percent Control” value [45] was 100%. The “Percent Control” value [46] was 84%, the “Percent Control” value [47] was 93% and the “Percent Control” value [48] was 100%. The “Percent Control” value [49] was 96%, the “Percent Control” value [50] was 100% and the “Percent Control” value [51] was 89%. For the same compound, the “Percent Control” value [52] was 80%.
